This passage reports Emax, EC50 and IC50 results from patent US12201640B2, “19-nor C3,3-disubstituted C21-n-pyrazolyl steroids and methods of use thereof” (Sage Therapeutics, Inc., priority 2013, dated 2025).

The target in one experiment is T1, GABAA receptor α1β2γ2 (Homo sapiens, UniProt P14867+P47870).
T1 construct: expressed in transfected cells
Nature of the experiment: Patch clamp electrophysiology, Qpatch in Ltk cells. The format is cell-based. The conditions noted are these: 10 μM test article, GABA EC20 2 μM, read-out: GABA (α1β2γ2) Qpatch in Ltk, % efficacy at 10 μM. As to the method: (§1) Patch Clamp Electrophysiology of Recombinant α1β2γ2 and α4β3δ GABAA Receptors
(§2) Cellular electrophysiology is used to measure the pharmacological properties of our GABAA receptor modulators in heterologous cell systems. Each compound is tested for its ability to affect GABA mediated currents at a submaximal agonist dose (GABA EC20=2 μM). LTK cells are stably transfected with the α1β2γ2 subunits of the GABA receptor and CHO cells are transiently transfected with the α4β3δ subunits via the Lipofecatamine method. Cells were passaged at a confluence of about 50-80% and then seeded onto 35 mm sterile culture dishes containing 2 ml culture complete medium without antibiotics or antimycotics. Confluent clusters of cells are electrically coupled (Pritchett et al., Science, 1988, 242, 1306-1308.). Because responses in distant cells are not adequately voltage clamped and because of uncertainties about the extent of coupling (Verdoorn et al., Neuron 1990, 4, 919-928.), cells were cultivated at a density that enables the recording of single cells (without visible connections to other cells).
(§3) Whole cell currents were measured with HEKA EPC-10 amplifiers using PatchMaster software or by using the high throughput QPatch platform (Sophion). Bath solution for all experiments contained (in mM): NaCl 137 mM, KCl 4 mM, CaCl2 1.8 mM, MgCl2 1 mM, HEPES 10 mM, D-Glucose 10 mM, pH (NaOH) 7.4. In some cases 0.005% cremophor was also added. Intracellular (pipette) solution contained: KCl 130 mM, MgCl2 1 mM, Mg-ATP 5 mM, HEPES 10 mM, EGTA 5 mM, pH 7.2. During experiments, cells and solutions were maintained at room temperature (19° C.-30° C.). For manual patch clamp recordings, cell culture dishes were placed on the dish holder of the microscope and continuously perfused (1 ml/min) with bath solution. After formation of a Gigaohm seal between the patch electrodes and the cell (pipette resistance range: 2.5 MΩ-6.0 MΩ; seal resistance range: >1 GΩ) the cell membrane across the pipette tip was ruptured to assure electrical access to the cell interior (whole-cell patch-configuration). For experiments using the QPatch system, cells were transferred as suspension to the QPatch system in the bath solution and automated whole cell recordings were performed.
(§4) Cells were voltage clamped at a holding potential of −80 mV. For the analysis of test articles, GABA receptors were stimulated by 2 μM GABA after sequential pre-incubation of increasing concentrations of the test article. Pre-incubation duration was 30 s and the duration of the GABA stimulus was 2 s. Test articles were dissolved in DMSO to form stock solutions (10 mM). Test articles were diluted to 0.01, 0.1, 1, and 10 μM in bath solution. All concentrations of test articles were tested on each cell. The relative percentage potentiation was defined as the peak amplitude in response to GABA EC20 in the presence of the test article divided by the peak amplitude in response to GABA EC20 alone, multiplied by 100.
For orientation: The patch-clamp technique gives a direct electrical read-out from membranes.

The target of the next experiment is T2, GABAA receptor α4β3δ (Homo sapiens, UniProt P28472+P48169).
T2 construct: expressed in transfected cells; host or cells: CHO cells (transient, lipofection)
T2 sequence (P48169 36-554): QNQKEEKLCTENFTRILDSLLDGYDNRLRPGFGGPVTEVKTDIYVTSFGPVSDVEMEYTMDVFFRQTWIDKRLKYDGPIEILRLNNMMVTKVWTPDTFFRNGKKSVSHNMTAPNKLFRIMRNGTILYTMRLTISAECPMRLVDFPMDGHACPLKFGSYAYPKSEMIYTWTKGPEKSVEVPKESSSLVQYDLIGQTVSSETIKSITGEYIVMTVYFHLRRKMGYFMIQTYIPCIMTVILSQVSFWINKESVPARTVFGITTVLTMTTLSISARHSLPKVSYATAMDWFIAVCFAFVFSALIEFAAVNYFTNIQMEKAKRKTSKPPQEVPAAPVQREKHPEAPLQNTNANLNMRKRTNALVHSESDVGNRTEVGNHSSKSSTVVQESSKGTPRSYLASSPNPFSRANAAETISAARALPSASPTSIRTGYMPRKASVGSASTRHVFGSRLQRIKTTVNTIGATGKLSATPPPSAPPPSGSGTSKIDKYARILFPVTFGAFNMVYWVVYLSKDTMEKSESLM
T2 sequence (P28472 26-473): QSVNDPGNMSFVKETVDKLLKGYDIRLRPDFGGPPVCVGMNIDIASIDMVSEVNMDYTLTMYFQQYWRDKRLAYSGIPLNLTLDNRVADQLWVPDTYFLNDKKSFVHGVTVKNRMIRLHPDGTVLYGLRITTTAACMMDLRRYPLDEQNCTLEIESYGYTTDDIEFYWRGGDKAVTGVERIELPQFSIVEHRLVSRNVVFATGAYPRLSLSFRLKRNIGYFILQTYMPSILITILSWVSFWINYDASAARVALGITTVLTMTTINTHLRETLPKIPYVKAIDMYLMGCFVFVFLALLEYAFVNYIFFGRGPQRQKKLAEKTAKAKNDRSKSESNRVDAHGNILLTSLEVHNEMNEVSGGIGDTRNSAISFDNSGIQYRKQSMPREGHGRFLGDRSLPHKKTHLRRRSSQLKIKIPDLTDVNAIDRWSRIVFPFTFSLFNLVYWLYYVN
T2 sequence (O14764 25-452 partner): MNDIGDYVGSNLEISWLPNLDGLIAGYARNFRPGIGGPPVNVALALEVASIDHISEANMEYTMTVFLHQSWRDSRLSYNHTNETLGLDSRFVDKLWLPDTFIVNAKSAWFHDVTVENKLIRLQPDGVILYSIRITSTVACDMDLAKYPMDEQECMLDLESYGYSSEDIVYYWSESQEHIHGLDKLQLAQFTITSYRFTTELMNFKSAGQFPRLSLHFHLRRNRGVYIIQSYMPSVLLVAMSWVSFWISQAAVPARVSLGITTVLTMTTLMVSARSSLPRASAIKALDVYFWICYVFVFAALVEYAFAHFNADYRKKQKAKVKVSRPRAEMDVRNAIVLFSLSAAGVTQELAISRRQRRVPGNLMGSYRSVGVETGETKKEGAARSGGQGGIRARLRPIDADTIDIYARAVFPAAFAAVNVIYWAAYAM
Nature of the experiment: Patch clamp electrophysiology, manual patch in CHO cells. To be noted: 10 μM test article, GABA EC20 2 μM, read-out: GABA (α4β3δ) Manual patch in CHO, % efficacy at 10 μM. The format is cell-based. As to the method:
as §1, §2, §3, §4

In another experiment the target is T3, GABAA-R (Homo sapiens, UniProt P14867+P47870).
T3 sequence (P14867 1-456): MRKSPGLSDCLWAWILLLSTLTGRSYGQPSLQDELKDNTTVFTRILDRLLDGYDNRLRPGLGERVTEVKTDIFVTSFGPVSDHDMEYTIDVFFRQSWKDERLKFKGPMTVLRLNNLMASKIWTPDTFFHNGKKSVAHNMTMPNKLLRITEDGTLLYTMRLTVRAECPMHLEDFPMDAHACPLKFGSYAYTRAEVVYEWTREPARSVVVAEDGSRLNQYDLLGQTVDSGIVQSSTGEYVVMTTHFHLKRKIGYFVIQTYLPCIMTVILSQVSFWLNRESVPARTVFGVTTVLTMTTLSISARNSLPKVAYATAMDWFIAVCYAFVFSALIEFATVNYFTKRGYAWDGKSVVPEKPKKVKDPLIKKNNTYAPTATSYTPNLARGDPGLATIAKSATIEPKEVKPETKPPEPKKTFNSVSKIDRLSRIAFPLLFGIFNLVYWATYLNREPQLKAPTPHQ
T3 sequence (P47870 1-512): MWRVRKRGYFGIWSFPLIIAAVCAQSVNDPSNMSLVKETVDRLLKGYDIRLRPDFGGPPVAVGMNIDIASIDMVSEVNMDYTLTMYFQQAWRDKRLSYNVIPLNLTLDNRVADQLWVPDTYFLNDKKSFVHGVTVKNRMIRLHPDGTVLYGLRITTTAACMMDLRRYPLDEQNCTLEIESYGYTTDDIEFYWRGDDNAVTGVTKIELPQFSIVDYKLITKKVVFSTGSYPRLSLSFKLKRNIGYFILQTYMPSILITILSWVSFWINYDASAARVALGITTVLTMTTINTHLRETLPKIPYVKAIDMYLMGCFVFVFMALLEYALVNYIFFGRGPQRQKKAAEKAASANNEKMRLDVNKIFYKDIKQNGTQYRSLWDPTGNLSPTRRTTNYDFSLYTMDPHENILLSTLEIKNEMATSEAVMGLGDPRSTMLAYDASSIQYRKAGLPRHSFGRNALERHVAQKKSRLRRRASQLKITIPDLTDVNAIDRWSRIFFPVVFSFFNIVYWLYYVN
Nature of the experiment: Electrophysiological evaluation at GABAA-R (Table 2). The format is cell-based. To be noted: GABAA-R electrophysiology; for EC50: read-out: EC50. As to the method: as §1, §2, §3, §4

The target in experiment [1] is [35S]-TBPS binding, rat brain cortical membranes (GABA receptor complex). Nature of the experiment: Steroid inhibition of [35S]-TBPS binding. To be noted: 3 nM [35S]-TBPS, 5 μM GABA. As to the method:
Steroid Inhibition of TBPS Binding
[35S]-t-Butylbicyclophosphorothionate (TBPS) binding assays using rat brain cortical membranes in the presence of 5 μM GABA has been described (Gee et al, J. Pharmacol. Exp. Ther. 1987, 241, 346-353; Hawkinson et al, Mol. Pharmacol. 1994, 46, 977-985; Lewin, A. H et al., Mol. Pharmacol. 1989, 35, 189-194).
Briefly, cortices are rapidly removed following decapitation of carbon dioxide-anesthetized Sprague-Dawley rats (200-250 g). The cortices are homogenized in 10 volumes of ice-cold 0.32 M sucrose using a glass/teflon homogenizer and centrifuged at 1500×g for 10 min at 4° C. The resultant supernatants are centrifuged at 10,000×g for 20 min at 4° C. to obtain the P2 pellets. The P2 pellets are resuspended in 200 mM NaCl/50 mM Na-K phosphate pH 7.4 buffer and centrifuged at 10,000×g for 10 min at 4° C. This washing procedure is repeated twice and the pellets are resuspended in 10 volumes of buffer. Aliquots (100 μL) of the membrane suspensions are incubated with 3 nM [^35S]-TBPS and 5 μL aliquots of test drug dissolved in dimethyl sulfoxide (DMSO) (final 0.5%) in the presence of 5 μM GABA. The incubation is brought to a final volume of 1.0 mL with buffer. Nonspecific binding is determined in the presence of 2 μM unlabeled TBPS and ranged from 15 to 25%. Following a 90 min incubation at room temp, the assays are terminated by filtration through glass fiber filters (Schleicher and Schuell No. 32) using a cell harvester (Brandel) and rinsed three times with ice-cold buffer. Filter bound radioactivity is measured by liquid scintillation spectrometry. Non-linear curve fitting of the overall data for each drug averaged for each concentration is done using Prism (GraphPad). […] The concentration of test compound producing 50% inhibition (IC50) of specific binding and the maximal extent of inhibition (Imax) are determined for the individual experiments with the same model used for the overall data and then the means±SEM.s of the individual experiments are calculated.
Various compounds are or can be screened to determine their potential as modulators of [^35S]-TBPS binding in vitro. These assays are or can be performed in accordance with the above discussed procedures.

T1 sequence (P18507 40-475 partner, one chain of several): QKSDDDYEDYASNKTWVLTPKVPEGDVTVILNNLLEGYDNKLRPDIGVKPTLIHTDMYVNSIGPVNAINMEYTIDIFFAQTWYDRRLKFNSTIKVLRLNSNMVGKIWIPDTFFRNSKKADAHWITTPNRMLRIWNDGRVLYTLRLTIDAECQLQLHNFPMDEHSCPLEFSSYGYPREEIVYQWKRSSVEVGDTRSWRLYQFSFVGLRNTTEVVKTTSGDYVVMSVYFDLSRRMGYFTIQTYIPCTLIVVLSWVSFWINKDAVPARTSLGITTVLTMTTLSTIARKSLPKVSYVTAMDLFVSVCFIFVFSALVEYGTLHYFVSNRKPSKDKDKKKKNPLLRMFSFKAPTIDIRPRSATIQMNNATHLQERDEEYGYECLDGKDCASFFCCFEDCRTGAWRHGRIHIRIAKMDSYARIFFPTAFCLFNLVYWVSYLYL

Consider `C[C@@]1(O)CC[C@@H]2[C@H]3CC[C@]4(C)[C@@H](C(=O)Cn5cc(C#N)cn5)CC[C@H]4[C@@H]3C[C@@H](F)[C@H]2C1` [SB-11], for which the Emax at 10 µM on GABAA receptor α1β2γ2 was 100 to 500%; at GABAA receptor α4β3δ, greater than 500%.

On to `C[C@@]1(O)CC[C@H]2[C@@H](CC[C@@H]3[C@@H]2CC[C@]2(C)[C@@H](C(=O)Cn4cc(C#N)cn4)CC[C@@H]32)C1` [SB-2], for which the Emax at 10 µM at GABAA receptor α1β2γ2 and on GABAA receptor α4β3δ was 100 to 500% throughout.

`CC(=O)c1ccn(CC(=O)[C@H]2CC[C@H]3[C@@H]4CC[C@@H]5C[C@](C)(O)CC[C@@H]5[C@H]4CC[C@]23C)n1` [SA-5]: the concentration giving a half-maximal response (EC50) (as a rule, the concentration giving half of the maximal effect) at GABAA-R was greater than 2 µM. In experiment [1], the IC50 (as a rule, the point on the concentration scale where inhibition reaches its midpoint) is less than 0.01 µM. For the same compound, the Emax at 10 µM at GABAA receptor α1β2γ2 is greater than 500%.

For `C[C@@]1(O)CC[C@@H]2[C@H]3CC[C@]4(C)[C@@H](C(=O)Cn5cc(S(C)(=O)=O)cn5)CC[C@H]4[C@@H]3C[C@@H](F)[C@H]2C1` [SB-15], the Emax at 10 µM at GABAA receptor α1β2γ2 was 100 to 500%; at GABAA receptor α4β3δ it was greater than 500%.

In the case of `C[C@@]1(O)CC[C@H]2[C@H](CC[C@@H]3[C@@H]2CC[C@]2(C)[C@@H](C(=O)Cn4nccc4C(F)(F)F)CC[C@@H]32)C1` [SA-2], on GABAA-R, the Emax fell in the range of 500 to 1000% and the EC50 was greater than 2 µM. Also, in experiment [1], the half-maximal inhibitory concentration (IC50) was in the range of 0.05 to 0.1 µM. On GABAA receptor α1β2γ2, the Emax at 10 µM is greater than 500%.

For the compound `Cc1ccn(CC(=O)[C@H]2CC[C@H]3[C@@H]4CC[C@@H]5C[C@](C)(O)CC[C@@H]5[C@H]4CC[C@]23C)n1` [SA-11], at GABAA-R, the Emax fell in the range of 500 to 1000% and the EC50 lay in the range of 1 to 2 µM. Further, the 50% inhibitory concentration (IC50) in experiment [1] lay in the range of 0.01 to 0.05 µM. The Emax at 10 µM on GABAA receptor α1β2γ2 was greater than 500%.

On to `Cc1ccnn1CC(=O)[C@H]1CC[C@H]2[C@@H]3CC[C@@H]4C[C@](C)(O)CC[C@@H]4[C@H]3CC[C@]12C` [SA-10], for which, on GABAA-R, the Emax was 0 to 500% and the EC50 is greater than 2 µM. The half-inhibitory concentration (IC50) in experiment [1] was 0.05 to 0.1 µM. Besides, the Emax at 10 µM at GABAA receptor α1β2γ2 was in the range of 100 to 500%.

In the case of `C[C@@]1(O)CC[C@H]2[C@@H](CC[C@@H]3[C@@H]2CC[C@]2(C)[C@@H](C(=O)Cn4cccn4)CC[C@@H]32)C1` [SB-1], the half-inhibitory concentration (IC50) in experiment [1] is 0.1 to 0.5 µM. For the same compound, the Emax at 10 µM on GABAA receptor α1β2γ2 and on GABAA receptor α4β3δ was 100 to 500% in each case.

In turn, `C[C@]12CC[C@H]3[C@@H](CC[C@@H]4C[C@@](O)(CF)CC[C@@H]43)[C@@H]1CC[C@@H]2C(=O)Cn1cc(C#N)cn1` [SA-32] had a half-inhibitory concentration (IC50) in experiment [1] of 0.01 to 0.05 µM. Also, the Emax at 10 µM on GABAA receptor α1β2γ2 and at GABAA receptor α4β3δ was greater than 500% in each case.

With `C[C@@]1(O)CC[C@@H]2[C@H]3CC[C@]4(C)[C@@H](C(=O)Cn5cccn5)CC[C@H]4[C@@H]3C[C@@H](F)[C@H]2C1` [SB-10], in experiment [1], the half-inhibitory concentration (IC50) was 0.1 to 0.5 µM. In addition, the Emax at 10 µM at GABAA receptor α1β2γ2 and on GABAA receptor α4β3δ was 100 to 500% in each case.

As for `COC[C@@]1(O)CC[C@H]2[C@@H](CC[C@@H]3[C@@H]2CC[C@]2(C)[C@@H](C(=O)Cn4cc(C#N)cn4)CC[C@@H]32)C1` [SB-5], the IC50 in experiment [1] lay within 0.01 to 0.05 µM. In addition, the figures for the Emax at 10 µM at GABAA receptor α1β2γ2 and on GABAA receptor α4β3δ were greater than 500% and 100 to 500%, respectively.

In experiment [1], `COC[C@@]1(O)CC[C@H]2[C@H](CC[C@@H]3[C@@H]2CC[C@]2(C)[C@@H](C(=O)Cn4cc(C#N)cn4)CC[C@@H]32)C1` [SA-24] had an IC50 of 0.01 to 0.05 µM. The Emax at 10 µM at GABAA receptor α1β2γ2 and on GABAA receptor α4β3δ was greater than 500% throughout.

On to `C[C@@]1(O)CC[C@H]2[C@H](CC[C@@H]3[C@@H]2CC[C@]2(C)[C@@H](C(=O)Cn4cc([N+](=O)[O-])cn4)CC[C@@H]32)C1` [SA-8], for which, on GABAA-R, the Emax lay within 0 to 500% and the EC50 fell in the range of 1 to 2 µM. This compound also yielded an IC50 in experiment [1] of 0.01 to 0.05 µM. In addition, the Emax at 10 µM on GABAA receptor α1β2γ2 is 100 to 500%.

Turning to `C[C@@]1(O)CC[C@H]2[C@H](CC[C@@H]3[C@@H]2CC[C@]2(C)[C@@H](C(=O)Cn4ccc(C(F)(F)F)n4)CC[C@@H]32)C1` [SA-1], on GABAA-R, the Emax lay in the range of 500 to 1000% and the 50% effective concentration (EC50) lay in the range of 1 to 2 µM. This compound also yielded an IC50 in experiment [1] of less than 0.01 µM. In addition, at GABAA receptor α1β2γ2, the Emax at 10 µM was greater than 500%.
